How the values were obtained:
CCD-966SK = test: MTT cell proliferation assay, CCD-966SK; conditions: CCD966SK skin fibroblast, 72 h MTT
Description: In the MTT assay, 96-well culture plates were used. A total of 7 × 10^4 cells per well were seeded, and test materials were added to the cells at various concentrations [47, 48]. Human cancer and non-cancer cell lines were purchased commercially from the American Type Culture Collection (ATCC). After 72 h, the cytotoxicity of the compounds and paclitaxel (as a positive control group) was detected using the MTT method (thiazolyl blue tetrazolium bromide, Sigma-M2128). Absorbance values at 570 and 620 nm (OD = OD570–OD620) were measured using an ELISA reader (Anthos Labtec Instruments, Salzburg, Austria).

PDE5A = biological target: T1, PDE5A (Homo sapiens, UniProt O76074); test: Phosphodiesterase 5 HTRF cGMP assay; assay type: biochemical; conditions: for IC50: means ± S.D. (n = 4), read-out: PDE5 IC50; for inhibition at 10 µM: read-out: PDE5 % Inhibition at 10 μM
T1 construct: purchased BPS Bioscience, San Diego, CA, USA
Description: All the synthesized acridine derivatives were tested for their in vitro ability to inhibit PDE5A at a screening dose of 10 µM.
The enzyme activities of phosphodiesterase 5 (PDE5) were measured using an HTRF cGMP assay kit (Cisbio, Codolet, France). […] Afterward, the HTRF reagent (cGMP-d2 and anti-cGMP-cryptate) was added for 1 h at 25 °C, and PDE activity was assayed on an HTRF reader (Tecan Infinite F200 Pro).

LOX IMVI = test: NCI-60 one-dose screen; assay type: cell-based; conditions: Homo sapiens, Melanoma panel, single dose 10^−5 M, read-out: Growth inhibition %
KM12 = test: NCI-60 one-dose screen; assay type: cell-based; conditions: Homo sapiens; KM12, Colon Cancer panel; single dose 10^−5 M; read-out: Growth inhibition %
RXF 393 = test: NCI-60 one-dose screen; assay type: cell-based; conditions: Homo sapiens; RXF 393, Renal Cancer panel; single dose 10^−5 M; read-out: Growth inhibition %
MDA-MB-231/ATCC = test: NCI-60 one-dose screen; assay type: cell-based; conditions: Homo sapiens, Breast Cancer panel, single dose 10^−5 M, read-out: Growth inhibition %
SN12C = test: NCI-60 one-dose screen; assay type: cell-based; conditions: Homo sapiens, Renal Cancer panel, single dose 10^−5 M, read-out: Growth inhibition %
OVCAR-3 = test: NCI-60 one-dose screen; assay type: cell-based; conditions: Homo sapiens; OVCAR-3, Ovarian Cancer panel; single dose 10^−5 M; read-out: Growth inhibition %
U251 = test: NCI-60 one-dose screen; assay type: cell-based; conditions: Homo sapiens, U-251; U251, CNS Cancer panel; single dose 10^−5 M; read-out: Growth inhibition %
MDA-MB-468 = test: NCI-60 one-dose screen; assay type: cell-based; conditions: Homo sapiens; MDA-MB-468, Breast Cancer panel; single dose 10^−5 M; read-out: Growth inhibition %
SF-539 = test: NCI-60 one-dose screen; assay type: cell-based; conditions: Homo sapiens; SF-539, CNS Cancer panel; single dose 10^−5 M; read-out: Growth inhibition %
OVCAR-8 = test: NCI-60 one-dose screen; assay type: cell-based; conditions: Homo sapiens; OVCAR-8, Ovarian Cancer panel; single dose 10^−5 M; read-out: Growth inhibition %
HCC-2998 = test: NCI-60 one-dose screen; assay type: cell-based; conditions: Homo sapiens; HCC-2998, Colon Cancer panel; single dose 10^−5 M; read-out: Growth inhibition %
HCT-116 = test: NCI-60 one-dose screen; assay type: cell-based; conditions: Homo sapiens, read-out: Growth inhibition %
SNB-19 = test: NCI-60 one-dose screen; assay type: cell-based; conditions: Homo sapiens; SNB-19, CNS Cancer panel; single dose 10^−5 M; read-out: Growth inhibition %
RPMI-8226 = test: NCI-60 one-dose screen; assay type: cell-based; conditions: Homo sapiens; RPMI-8226, Leukemia panel; single dose 10^−5 M; read-out: Growth inhibition %
TK-10 = test: NCI-60 one-dose screen; assay type: cell-based; conditions: Homo sapiens; TK-10, Renal Cancer panel; single dose 10^−5 M; read-out: Growth inhibition %
UACC-62 = test: NCI-60 one-dose screen; assay type: cell-based; conditions: Homo sapiens; UACC-62, Melanoma panel; single dose 10^−5 M; read-out: Growth inhibition %
HOP-62 = test: NCI-60 one-dose screen; assay type: cell-based; conditions: Homo sapiens; HOP-62, Non-small cell lung panel; single dose 10^−5 M; read-out: Growth inhibition %
MALME-3M = test: NCI-60 one-dose screen; assay type: cell-based; conditions: Homo sapiens, Melanoma panel, single dose 10^−5 M, read-out: Growth inhibition %
SK-MEL-2 = test: NCI-60 one-dose screen; assay type: cell-based; conditions: Homo sapiens; SK-MEL-2, Melanoma panel; single dose 10^−5 M; read-out: Growth inhibition %
NCI-H322M = test: NCI-60 one-dose screen; assay type: cell-based; conditions: Homo sapiens, Non-small cell lung panel, single dose 10^−5 M, read-out: Growth inhibition %
HS 578T = test: NCI-60 one-dose screen; assay type: cell-based; conditions: Homo sapiens, Breast Cancer panel, single dose 10^−5 M, read-out: Growth inhibition %
COLO 205 = test: NCI-60 one-dose screen; assay type: cell-based; conditions: Homo sapiens; COLO 205, Colon Cancer panel; single dose 10^−5 M; read-out: Growth inhibition %
SW-620 = test: NCI-60 one-dose screen; assay type: cell-based; conditions: Homo sapiens; SW-620, Colon Cancer panel; single dose 10^−5 M; read-out: Growth inhibition %
A549/ATCC = test: NCI-60 one-dose screen; assay type: cell-based; conditions: Homo sapiens, Non-small cell lung panel, single dose 10^−5 M, read-out: Growth inhibition %
NCI-H226 = test: NCI-60 one-dose screen; assay type: cell-based; conditions: Homo sapiens; NCI-H226, Non-small cell lung panel; single dose 10^−5 M; read-out: Growth inhibition %
UO-31 = test: NCI-60 one-dose screen; assay type: cell-based; conditions: Homo sapiens; UO-31, Renal Cancer panel; single dose 10^−5 M; read-out: Growth inhibition %
UACC-257 = test: NCI-60 one-dose screen; assay type: cell-based; conditions: Homo sapiens; UACC-257, Melanoma panel; single dose 10^−5 M; read-out: Growth inhibition %
K-562 = test: NCI-60 one-dose screen; assay type: cell-based; conditions: Homo sapiens, K562; K-562, Leukemia panel; single dose 10^−5 M; read-out: Growth inhibition %

| SMILES | % Inhibition at 10 µM (CCD-966SK) | IC50 (PDE5A) | inhibition at 10 µM (PDE5A) | inhibition at 10 µM (LOX IMVI) | inhibition at 10 µM (KM12) | inhibition at 10 µM (RXF 393) | inhibition at 10 µM (MDA-MB-231/ATCC) | inhibition at 10 µM (SN12C) | inhibition at 10 µM (OVCAR-3) | inhibition at 10 µM (U251) | inhibition at 10 µM (MDA-MB-468) | inhibition at 10 µM (SF-539) | inhibition at 10 µM (OVCAR-8) | inhibition at 10 µM (HCC-2998) | inhibition at 10 µM (HCT-116) | inhibition at 10 µM (SNB-19) | inhibition at 10 µM (RPMI-8226) | inhibition at 10 µM (TK-10) | inhibition at 10 µM (UACC-62) | inhibition at 10 µM (HOP-62) | further results |
| --- | --- | --- | --- | --- | --- | --- | --- | --- | --- | --- | --- | --- | --- | --- | --- | --- | --- | --- | --- | --- | --- |
| Cc1ccc2nc3ccccc3c(NCc3ccccc3)c2c1 [Compound 30, Benzyl-(2-methylacridin-9-yl)-amine] | 47.93 ± 1.06% | 4.52 ± 1.74 µM | 68.8 ± 7.05% | 90.9% | 43.7% | 98.7% | 64.2% | 74.5% | 34% | 63% | 111% | 76.8% | 66.5% | 121% | 90.6% | 68.2% | 93.2% | 24.7% | 43.6% | 56.5% | inhibition at 10 µM (MALME-3M): 44.8%; inhibition at 10 µM (SK-MEL-2): 0.04%; inhibition at 10 µM (NCI-H322M): 59.1%; inhibition at 10 µM (HS 578T): 30.2%; inhibition at 10 µM (COLO 205): 91.9%; inhibition at 10 µM (SW-620): 75.7%; inhibition at 10 µM (A549/ATCC): 59.8%; inhibition at 10 µM (NCI-H226): 50.2%; inhibition at 10 µM (UO-31): 81.7%; inhibition at 10 µM (UACC-257): 43.4%; inhibition at 10 µM (K-562): 89% |
| Cc1ccc2nc3ccccc3c(NCc3ccc(Cl)cc3)c2c1 [Compound 31, (4-Chlorobenzyl)-(2-methyl-acridin-9-yl)-amine] | 60.02 ± 3.07% | 4.78 ± 1.48 µM | 65.7 ± 7.48% | 157% | 22.9% | 71% | 62.3% | 60.5% | 29.1% | 74.9% | 122% | 59.8% | 47.6% | 179% | 85.3% | 49.7% | 128% | 17.6% | 26% | 34.8% | IC50 (CCD-966SK; read-out: IC50 μM): 4.96 ± 0.62 µM; inhibition at 10 µM (MALME-3M): 114%; inhibition at 10 µM (SK-MEL-2): -1.95%; inhibition at 10 µM (NCI-H322M): 44.1%; inhibition at 10 µM (HS 578T): 22.2%; inhibition at 10 µM (COLO 205): 153%; inhibition at 10 µM (SW-620): 68%; inhibition at 10 µM (A549/ATCC): 59.2%; inhibition at 10 µM (NCI-H226): 27.7%; inhibition at 10 µM (UO-31): 75.5%; inhibition at 10 µM (UACC-257): 103%; inhibition at 10 µM (K-562): 97.4% |

Source: article PMC9866191, “Novel 9-Benzylaminoacridine Derivatives as Dual Inhibitors of Phosphodiesterase 5 and Topoisomerase II for the Treatment of Colon Cancer” (Molecules, 2023)
